Measurements taken from ChEMBL document CHEMBL4118137, “Design, synthesis and antineoplastic activity of novel hybrids of podophyllotoxin and indirubin against human leukaemia cancer cells as multifunctional anti-MDR agents” (Bioorg Med Chem Lett, 2018).
Activity calls are given as the source filed them. The calls are words filed in the database; no cut-off is given here.

What was measured:
[1] = tested on: K562/VCR; assay: Antiproliferative activity against human K562/VCR cells after 72 hrs by CCK8 assay; type: functional, cell-based
[2] = Resistance factor, ratio of IC50 for human K562/VCR cells to IC50 for human K562 cells; type: functional
[3] = tested on: K562; assay: Antiproliferative activity against human K562 cells after 72 hrs by CCK8 assay; type: functional, cell-based; conditions: K562, 72 h
[4] = tested on: K562/VCR; assay: Induction of autophagy in human K562/VCR cells assessed as upregulation of beclin-1 expression at 0.05 uM after 48 hrs by Western blot method relative to beta-actin; type: functional
[5] = molecular target: RAC-alpha serine/threonine-protein kinase (Homo sapiens) (UniProt P31749); assay: Inhibition of AKT phosphorylation in human K562/VCR cells at 0.05 uM after 48 hrs by Western blot method relative to beta-actin; type: cell-based
[6] = tested on: K562/VCR; assay: Cell cycle arrest in human K562/VCR cells assessed as accumulation at G1 phase at 0.05 uM after 48 hrs by propidium iodide staining-based flow cytometric method (reference value: 46.20%); type: functional
[7] = tested on: K562/VCR; assay: Induction of apoptosis in human K562/VCR cells assessed as viable cells at 0.1 uM after 48 hrs by annexin-V-FITC/propidium iodide staining-based flow cytometric method (reference value: 91.05%); type: functional; conditions: read-out: Activity
[8] = tested on: K562/VCR; assay: Cell cycle arrest in human K562/VCR cells assessed as accumulation at S phase at 0.05 uM after 48 hrs by propidium iodide staining-based flow cytometric method (reference value: 46.02%); type: functional
[9] = molecular target: T1, c-Jun N-terminal kinase, JNK (Homo sapiens) (UniProt P45983+P53779+P45984); assay: Induction of JNK phosphorylation in human K562/VCR cells at 0.05 uM after 48 hrs by Western blot method relative to beta-actin; type: cell-based
[10] = tested on: K562/VCR; assay: Induction of apoptosis in human K562/VCR cells assessed as downregulation of CDK1 expression at 0.1 uM after 48 hrs by Western blot method relative to beta-actin; type: functional
[11] = tested on: K562/VCR; assay: Induction of reactive oxygen species formation in human K562/VCR cells at 0.1 uM after 24 hrs by DCFH-DA staining-based flow cytometric method (reference value: 0.41%); type: functional
[12] = tested on: K562/VCR; assay: Induction of apoptosis in human K562/VCR cells assessed as viable cells at 0.05 uM after 48 hrs by annexin-V-FITC/propidium iodide staining-based flow cytometric method (reference value: 91.05%); type: functional; conditions: read-out: Activity
[13] = tested on: K562/VCR; assay: Induction of apoptosis in human K562/VCR cells assessed as downregulation of CDK2 expression at 0.05 uM after 48 hrs by Western blot method relative to beta-actin; type: functional
[14] = species: Homo sapiens; assay: Inhibition of alpha-tubulin polymerization in human K562/VCR cells assessed as disruption of microtubule organization at 0.05 to 0.1 uM after 24 hrs by DAPI staining-based immunofluorescence assay; type: cell-based
[15] = tested on: K562/VCR; assay: Reduction in mitochondrial membrane potential in human K562/VCR cells at 0.05 uM after 48 hrs by JC1 probe-based flow cytometric method (reference value: 2.65%); type: functional; design: scale not given: the % may be the effect or the level left
[16] = tested on: K562/VCR; assay: Downregulation of P-gp expression in human K562/VCR cells at 0.1 uM after 48 hrs by Western blot method relative to beta-actin; type: functional
[17] = tested on: K562/VCR; assay: Reduction in mitochondrial membrane potential in human K562/VCR cells at 0.1 uM after 48 hrs by JC1 probe-based flow cytometric method (reference value: 2.65%); type: functional; design: scale not given: the % may be the effect or the level left
[18] = tested on: K562/VCR; assay: Cell cycle arrest in human K562/VCR cells assessed as accumulation at G2 phase at 0.1 uM after 48 hrs by propidium iodide staining-based flow cytometric method (reference value: 7.78%); type: functional
[19] = tested on: K562/VCR; assay: Induction of autophagy in human K562/VCR cells assessed as upregulation of LC3-2 expression at 0.1 uM after 48 hrs by Western blot method relative to beta-actin; type: functional
[20] = tested on: K562/VCR; assay: Induction of autophagy in human K562/VCR cells assessed as upregulation of LC3-2 expression at 0.05 uM after 48 hrs by Western blot method relative to beta-actin; type: functional
[21] = tested on: K562/VCR; assay: Induction of apoptosis in human K562/VCR cells assessed as upregulation of cleaved PARP expression at 0.05 uM after 48 hrs by Western blot method relative to beta-actin; type: functional
[22] = tested on: K562/VCR; assay: Induction of autophagy in human K562/VCR cells assessed as upregulation of beclin-1 expression at 0.1 uM after 48 hrs by Western blot method relative to beta-actin; type: functional
[23] = tested on: K562/VCR; assay: Induction of reactive oxygen species formation in human K562/VCR cells at 0.05 uM after 24 hrs by DCFH-DA staining-based flow cytometric method (reference value: 0.41%); type: functional
[24] = tested on: K562/VCR; assay: Cell cycle arrest in human K562/VCR cells assessed as accumulation at G1 phase at 0.1 uM after 48 hrs by propidium iodide staining-based flow cytometric method (reference value: 46.20%); type: functional
[25] = tested on: K562/VCR; assay: Downregulation of P-gp expression in human K562/VCR cells at 0.05 uM after 48 hrs by Western blot method relative to beta-actin; type: functional
[26] = tested on: K562/VCR; assay: Downregulation of MRP-1 expression in human K562/VCR cells at 0.1 uM after 48 hrs by Western blot method relative to beta-actin; type: functional
[27] = tested on: K562/VCR; assay: Cell cycle arrest in human K562/VCR cells assessed as accumulation at G2 phase at 0.05 uM after 48 hrs by propidium iodide staining-based flow cytometric method (reference value: 7.78%); type: functional
[28] = molecular target: RAC-alpha serine/threonine-protein kinase (Homo sapiens) (UniProt P31749); assay: Inhibition of AKT phosphorylation in human K562/VCR cells at 0.1 uM after 48 hrs by Western blot method relative to beta-actin; type: cell-based
[29] = tested on: K562/VCR; assay: Induction of apoptosis in human K562/VCR cells assessed as late apoptotic cells at 0.05 uM after 48 hrs by annexin-V-FITC/propidium iodide staining-based flow cytometric method (reference value: 1.90%); type: functional
[30] = tested on: K562/VCR; assay: Induction of apoptosis in human K562/VCR cells assessed as downregulation of CDK2 expression at 0.1 uM after 48 hrs by Western blot method relative to beta-actin; type: functional
[31] = molecular target: T1, c-Jun N-terminal kinase, JNK (Homo sapiens); assay: Induction of JNK phosphorylation in human K562/VCR cells at 0.1 uM after 48 hrs by Western blot method relative to beta-actin; type: cell-based
[32] = tested on: K562/VCR; assay: Induction of apoptosis in human K562/VCR cells assessed as upregulation of cleaved PARP expression at 0.1 uM after 48 hrs by Western blot method relative to beta-actin; type: functional
[33] = tested on: K562/VCR; assay: Induction of apoptosis in human K562/VCR cells assessed as necrotic cells at 0.1 uM after 48 hrs by annexin-V-FITC/propidium iodide staining-based flow cytometric method (reference value: 0.15%); type: functional
[34] = tested on: K562/VCR; assay: Induction of apoptosis in human K562/VCR cells assessed as late apoptotic cells at 0.1 uM after 48 hrs by annexin-V-FITC/propidium iodide staining-based flow cytometric method (reference value: 1.90%); type: functional
[35] = tested on: K562/VCR; assay: Cell cycle arrest in human K562/VCR cells assessed as accumulation at S phase at 0.1 uM after 48 hrs by propidium iodide staining-based flow cytometric method (reference value: 46.02%); type: functional
[36] = tested on: K562/VCR; assay: Induction of apoptosis in human K562/VCR cells assessed as early apoptotic cells at 0.05 uM after 48 hrs by annexin-V-FITC/propidium iodide staining-based flow cytometric method (reference value: 6.90%); type: functional
[37] = tested on: K562/VCR; assay: Induction of apoptosis in human K562/VCR cells assessed as necrotic cells at 0.05 uM after 48 hrs by annexin-V-FITC/propidium iodide staining-based flow cytometric method (reference value: 0.15%); type: functional
[38] = tested on: K562/VCR; assay: Downregulation of MRP-1 expression in human K562/VCR cells at 0.05 uM after 48 hrs by Western blot method relative to beta-actin; type: functional
[39] = tested on: K562/VCR; assay: Induction of apoptosis in human K562/VCR cells assessed as downregulation of CDK1 expression at 0.05 uM after 48 hrs by Western blot method relative to beta-actin; type: functional
[40] = tested on: K562/VCR; assay: Induction of apoptosis in human K562/VCR cells assessed as early apoptotic cells at 0.1 uM after 48 hrs by annexin-V-FITC/propidium iodide staining-based flow cytometric method (reference value: 6.90%); type: functional

RAC-alpha serine/threonine-protein kinase (Homo sapiens), sequence (P31749 whole entry): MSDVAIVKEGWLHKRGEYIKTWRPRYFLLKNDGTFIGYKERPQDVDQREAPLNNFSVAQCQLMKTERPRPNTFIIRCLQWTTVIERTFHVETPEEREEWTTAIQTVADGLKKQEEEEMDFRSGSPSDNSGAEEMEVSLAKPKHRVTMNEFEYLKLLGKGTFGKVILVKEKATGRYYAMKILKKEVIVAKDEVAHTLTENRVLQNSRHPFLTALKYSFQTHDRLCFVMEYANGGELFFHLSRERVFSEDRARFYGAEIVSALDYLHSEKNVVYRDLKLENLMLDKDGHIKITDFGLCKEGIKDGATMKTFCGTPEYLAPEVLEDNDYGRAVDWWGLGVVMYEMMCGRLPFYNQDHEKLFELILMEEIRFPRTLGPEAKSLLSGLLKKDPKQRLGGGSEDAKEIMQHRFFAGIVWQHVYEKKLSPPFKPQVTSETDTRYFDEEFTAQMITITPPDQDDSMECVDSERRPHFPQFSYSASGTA

## CC[C@]1(O)C[C@H]2CN(CCc3c([nH]c4ccccc34)[C@@](C(=O)OC)(c3cc4c(cc3OC)N(C=O)[C@H]3[C@@](O)(C(=O)OC)[C@H](OC(C)=O)[C@]5(CC)C=CCN6CC[C@]43[C@@H]65)C2)C1 [VINCRISTINE]
[1]
  IC50: 4740 nM
[2]
  Ratio IC50: 26.61
[3]
  IC50: 178 nM

## COc1cc([C@@H]2c3cc4c(cc3[C@H](OC(=O)CN3C(=O)/C(=C5\Nc6ccccc6C5=O)c5ccccc53)[C@H]3COC(=O)[C@H]23)OCO4)cc(OC)c1OC
[4]
  fold change (FC): 0.52
[5]
  fold change (FC): 0.6
[6]
  Activity: 23.26%
[7]
  viability at 0.1 µM: 52.4%
[8]
  Activity: 29.81%
[9]
  fold change (FC): 0.7
[10]
  fold change (FC): 0.32
[11]
  Activity: 39.84%
[12]
  viability at 0.05 µM: 76.8%
[13]
  fold change (FC): 0.44
[1]
  IC50: 76 nM
[2]
  Ratio IC50: 2.23
[14]
  inhibition: Active
[15]
  Activity: 19.44%
[16]
  fold change (FC): 0.33
[17]
  Activity: 40.38%
[18]
  Activity: 56.97%
[19]
  fold change (FC): 0.63
[20]
  fold change (FC): 0.78
[21]
  fold change (FC): 0.46
[22]
  fold change (FC): 0.6
[23]
  Activity: 24.27%
[24]
  Activity: 17.33%
[25]
  fold change (FC): 0.4
[26]
  fold change (FC): 0.24
[27]
  Activity: 46.93%
[28]
  fold change (FC): 0.43
[29]
  Activity: 9.61%
[3]
  IC50: 34 nM
[30]
  fold change (FC): 0.36
[31]
  fold change (FC): 0.84
[32]
  fold change (FC): 0.56
[33]
  Activity: 0.1%
[34]
  Activity: 18.91%
[35]
  Activity: 25.7%
[36]
  Activity: 13.48%
[37]
  Activity: 0.07%
[38]
  fold change (FC): 0.31
[39]
  fold change (FC): 0.44
[40]
  Activity: 28.58%

## COc1cc([C@@H]2c3cc4c(cc3[C@H](OC(=O)CCCCCN3C(=O)/C(=C5\Nc6ccccc6C5=O)c5ccccc53)[C@H]3COC(=O)[C@H]23)OCO4)cc(OC)c1OC
[1]
  IC50: 85700 nM
[2]
  Ratio IC50: 5.02
[3]
  IC50: 17000 nM

## COc1cc([C@@H]2c3cc4c(cc3[C@H](OC(=O)CCN3C(=O)/C(=C5\Nc6ccccc6C5=O)c5ccccc53)[C@H]3COC(=O)[C@H]23)OCO4)cc(OC)c1OC
[1]
  IC50: 2140 nM
[2]
  Ratio IC50: 1.64
[3]
  IC50: 1300 nM

## COc1cc([C@@H]2c3cc4c(cc3[C@H](OC(=O)CCCN3C(=O)/C(=C5\Nc6ccccc6C5=O)c5ccccc53)[C@H]3COC(=O)[C@H]23)OCO4)cc(OC)c1OC
[1]
  IC50: 1750 nM
[2]
  Ratio IC50: 0.97
[3]
  IC50: 1790 nM
